Results published in patent US20220401377A1, “COMPOSITION FOR PREVENTING AND/OR TREATING NEURODEGENERATIVE DISORDERS” (ICHIMARU PHARCOS CO., LTD., priority 2019, published 2022).

Legend:
[1] = system: mouse model of memory impairment; assay: Y-shaped maze test in scopolamine mouse model of memory impairment; assay type: in vivo; conditions: ICR mice, scopolamine 3 mg/kg i.p., Y-shaped maze on day 7
Procedure: The memory-improving effect of araliadiol was confirmed by administering (orally by sonde) a composition containing arariadiol (a compound shown in Formula I) to a mouse model of memory impairment.
Experimental methods are described below. The following groups of ICR mice (male, 7 weeks old/purchased from SLC Japan) were established. The mice in each group, except for the untreated group, were treated with the composition orally administered by sonde and scopolamine administered intraperitoneally (i.p.). The composition contains a predetermined amount of araliadiol in distilled water. Scopolamine was administered at a dose of 3 mg per kg of mice to cause memory impairment in mice. […] For groups other than the untreated group, distilled water or the composition was administered daily from day 0 to day 6 (seven doses of the composition), with day 0 being the first day of administration of distilled water or the composition. On the 7th day, all groups of mice were tested in a Y-shaped maze test. Scopolamine was administered to all groups of mice except the untreated group 30 minutes before the start of the Y-shaped maze test. • Untreated group: 15 ICR mice that were treated with distilled water containing no araliadiol, but not with scopolamine. • Control group: 16 ICR mice were treated with distilled water containing no araliadiol and scopolamine. • Araliadiol 1 mg/kg group: 16 ICR mice were treated with a composition containing araliadiol (1 mg of araliadiol per 1 kg of mouse body weight per day: 1 mg/kg/day) and scopolamine. • Araliadiol […]: A group of 16 ICR mice that received a composition containing araliadiol (10 mg of araliadiol per kg of mouse body weight per day: 10 mg/kg/day) and a dose of SCOPE.
The Y-shaped maze device shown in FIG. 11 (made of gray acrylic: 40 cm long×10 cm wide×12 cm high) was used to conduct the Y-shaped maze test. In the Y-shaped maze test, mice were allowed to explore in the device, and the spontaneous alternations observed during the exploratory behavior were evaluated as short-term memory. The mice were placed at the tip of one of the three arms of the Y-shaped maze, allowed to explore freely in the maze for 8 minutes, and the arms they entered were recorded in order. The number of times for the mouse to enter each arm (total number of arm entries) and the number of combinations of consecutive entries into three different arms (number of alternation behaviors) were examined during the measurement period (8 minutes). The alternation behavior (%) was calculated from the following formula and used as an index of short-term memory.
Alternating behavior (%)=number of alternating actions/(total number of arm entries−2)×100

[2] = system: human breast cancer cell line (MCF-7); conditions: MCF-7, Non-patent literature 1; cited from earlier work

SMILES: C=C[C@H](O)C#CC#C[C@H](O)/C=C\CCCCC [Araliadiol, 3(S),8(R)-pentadeca-1,9(Z)-diene-4,6-diyne-3,8-diol]
- Alternating behavior (%) ([1]; 1 mg/kg/day oral for 7 days): 50.87%
- Alternating behavior (%) ([1]; 1 mg/kg/day oral for 7 days, listed as araliadiol): increase in the rate of alternation behavior
- Alternating behavior (%) ([1]; 10 mg/kg/day oral for 7 days): 53.18(*) %
- Alternating behavior (%) ([1]; 10 mg/kg/day oral for 7 days, listed as araliadiol): improvement in the rate of alternating behavior
- cell cycle [2]: arrest the cell cycle
- proliferation [2]: inhibit the proliferation
